Reference: patent US10392363B2, “Methods for treating protozoan infections” (Neoculi Pty Ltd., priority 2014, dated 2019)

Columns and labels:
[1] = system: Leishmania donovani promastigotes; assay: L. donovani screening (Alamarblue); type: cell-based
Outline: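 Growth read as Alamarblue fluorescence (530 nm excitation, 590 nm emission) after culture at 27° C. Single-point screen: 10 μM compound, 4×10^5 cells/ml, 96 h; titration: 0.005–10 μM in third-steps, 1×10^6 cells/ml, 72 h, using exponentially growing procyclic promastigotes.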

[2] = Exposure in male Swiss outbred mice following IV administration; type: in vivo
Protocol: The systemic exposures of NCL026, NCL195, NCL259 and NCL812 were studied in nonfasted male Swiss outbred mice weighing 26.2-32.1 g. Mice had access to food and water ad libitum throughout the pre- and post-dose sampling period. Each compound was administered IV via a bolus injection into the tail vein (vehicle 20% (v/v) DMSO in PEG400, 1 mL/kg dose volume, n=8 mice per compound). […] A maximum of two samples were obtained from each mouse, with samples being taken either via submandibular bleed (approximately 120 μL; conscious sampling) or terminal cardiac puncture (0.6 mL; while mice were anaesthetised using inhaled Isoflurane). No urine samples were collected as mice were housed in bedded cages during the study. Blood was collected directly into polypropylene Eppendorf tubes containing heparin as anticoagulant, and stabilisation cocktail (containing Complete® (a protease inhibitor cocktail with EDTA) and potassium fluoride) to minimise the potential for ex vivo degradation of the test compounds in blood/plasma samples. Once collected, blood samples were centrifuged immediately, supernatant plasma was removed, and stored at −80° C. until analysis by LC-MS using methods standard in the art. Each compound was administered in a vehicle composed of 20% (v/v) DMSO in PEG400. Formulations were prepared by dissolving the compounds in DMSO prior to addition of PEG400. Formulations were not filtered prior to dosing and were administered to mice within 2.5 h of preparation. […] The dose administered to each mouse was calculated on the basis of the measured concentration in the IV formulation, the dose volume and individual mouse body weight. Plasma concentration versus time data were analysed using non-compartmental methods (WinNonlin Version 6.3.0.395). Standard calculations for each pharmacokinetic parameter were calculated using standard methods in the art.

[3] = system: Giardia duodenalis (WB strain trophozoites); assay: Transmission electron microscopy study; type: cell-based; conditions: 6 μg/ml NCL812, 1 hour
Protocol: Samples were incubated at 37° C. for 1 hour (NCL treated) or 4 hours (Metronidazole and DMSO control) then cold shocked to detach trophozoites. Treated samples were centrifuged at 900×g for 10 minutes and washed twice with cold saline. Final cell pellet was resuspended in pre-cooled fixative (1.25% gluteraldehyde, 4% paraformaldehyde in PBS with 4% sucrose, pH 7.2) and left overnight. […] Samples were embedded in epoxy resin and stained with uranyl acetate and lead citrate before viewing on an FEI Tecnai G2 Spirit Transmission Electron Microscope.

[4] = system: Trypanosoma cruzi (Tulahuen trypomastigotes expressing β-galactosidase, in L6 cells); assay: In vitro T. cruzi assay for determination of IC50; type: cell-based; conditions: Trypanosoma cruzi, TULAHUEN, L6; 96 h incubation
Outline: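 Tulahuen T. cruzi expressing β-galactosidase, grown in L6 cells; compounds tested as seven-point serial dilutions in triplicate after removing extracellular trypomastigotes.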

[5] = system: Giardia duodenalis trophozoites; assay: Resazurin reduction assay (Example 3); type: cell-based; conditions: 42 hours, then 6 hours with Alamarblue
Protocol: Giardia trophozoites were grown until confluent. The media was replaced with fresh media and they were cold shocked for 40 minutes (as above). Cells were diluted to a concentration of ˜500 000 cells/ml and 100 μl were added to each well of the assay plate (except media only control). The assay was incubated in an anaerobic environment (candle jar) for 42 hours at 37° C. […] After incubation the absorbance of each sample was read at 570 and 630 nm. The percent reduction of resazurin (Alamarblue™) was calculated and data was analysed with GraphPad Prism v6 software. Assay set-up: the assay was performed in 96 well plates in a total volume of 200 μl. 100 μl of NCL812 or NCL062 (concentration of 25.6 mg/ml in DMSO) or metronidazole (concentration 5 mg/ml in DMSO) stock was added to 9.9 ml of TYI-S-33 medium, then serially diluted 1:2 in the same medium. Cells were added as above.

[6] = system: Giardia duodenalis (strain WB trophozoites); assay: Giardia adherence assay; type: cell-based; conditions: exposed for 5 hours
Protocol: Giardia strain WB was grown until confluent (grown and maintained in TYI-S-33 medium with 10% foetal bovine serum). For the assay, media of a confluent culture was replaced with fresh TYI-S-33 medium. Cultures were then cold shocked (on ice) for 40 minutes to detach trophozoites. The cell density of the cultures was adjusted to 1×10^6 cells/ml and 1 ml was added to each well of a 24 well plate already containing 1 ml of diluted compounds (see below). […] After incubation the coverslips were removed, air-dried and stained with Diff-Quik (a Romanowski stain variant). Coverslips were mounted onto glass slides using polymount. Images at 10× magnification were taken at 5 random locations per coverslip. […] Stock solutions of compounds were prepared in DMSO at 25.6 mg/ml. Compounds were diluted 1:100 in TYI-S-33 medium. A 1:2 serial dilution was then performed in TYI-S-33 medium in 24 well plates.

Structure (SMILES): N=C(N/N=C/c1ccc(Cl)cc1)N/N=C/c1ccc(Cl)cc1 [NCL812, 1,3-bis[(E)-(4-chlorophenyl)methyleneamino]guanidine]
- L. donovani SI ([1]; GI50 of macrophages divided by IC50 of parasites): 5.12
- IC50 ([1]; Leishmania donovani, 72 h): 2.9 ± 0.24 µM
- adverse reactions after IV dosing ([2]; IV, 5 mg/kg, one mouse): abnormal behaviour (frantic, hyperactive)
- AUC0-inf ([2]; male, Swiss outbred, mouse, in vivo, IV 5 mg/kg, values marked a, b are approximations, read-out: AUC0-inf): 27.9 µM·h
- Vd ([2]; male, Swiss outbred, mouse, in vivo, IV 5 mg/kg, values marked a, b are approximations, read-out: Plasma Vss): 5.9 L/kg
- clearance ([2]; male, Swiss outbred, mouse, plasma, IV 5 mg/kg, values marked a, b are approximations, read-out: Plasma CL): 9.5 mL/min/kg
- half-life ([2]; male, Swiss outbred, mouse, IV 5 mg/kg, plasma, value marked b is an approximation, read-out: Apparent t1/2 (converted)): 8.2 h
- changes to the ultrastructure of Giardia duodenalis [3]: significant changes
- IC50 [4]: > 11 µM
- metabolic activity of the trophozoites (percentage of reduction of resazurin) [5]: reduction in the metabolic activity
- number of adherent trophozoites [6]: significant decreases
